According to ChEMBL document CHEMBL1137604, “Structure-activity relationship study on the 6-membered heteroaromatic ring system of diphenylpyrazine-type prostacyclin receptor agonists” (Bioorg Med Chem Lett, 2007):

Each compound was assayed on Plasma (assay: Inhibition of ADP-induced platelet aggregation in human platelet rich plasma).

| IC50 [nM] | SMILES |
| --- | --- |
| 1100 | CN(CCCCOCC(=O)O)c1cc(-c2ccccc2)c(-c2ccccc2)cn1 |
| 8600 | CN(CCCCOCC(=O)O)c1cc(-c2ccccc2)c(-c2ccccc2)nn1 |
| 1300 | CN(CCCCOCC(=O)O)c1nnc(-c2ccccc2)c(-c2ccccc2)n1 |
| 800 | CN(CCCCOCC(=O)O)c1cnc(-c2ccccc2)c(-c2ccccc2)c1 |
| 800 | CN(CCCCOCC(=O)O)c1ncc(-c2ccccc2)c(-c2ccccc2)n1 |
| 200 | CN(CCCCOCC(=O)O)c1ccc(-c2ccccc2)c(-c2ccccc2)n1 |
